Experimental data reported in patent US20260159534A1, “NOVEL CRYSTAL FORMS OF PEPTIDE BORIC ACID COMPOUND AND PREPARATION METHODS THEREFOR” (JIANGSU CHUANGTE PHARMACEUTICAL TECHNOLOGY CO., LTD., priority 2021, published 2026).
≈ marks a conversion by molar mass, not a printed value.

Tests used:
Assay type in all cases: physicochemical
[1] = Kinetic solubility determination in ultra-pure water; settings: upper limit 1000 μg/mL
Text: (§1) Four crystal samples produced, namely the eutectic sample and the crystal form A sample of Example 1, the crystal form B sample of Example 2, and the crystal form D sample of Example 3, were subjected to solubility tests and a kinetic solubility determination tests in ultra-pure water, and the solubility results are shown in Tables 1 and 2.

[2] = Hygroscopicity test (dynamic vapor sorption); settings: 25° C.; for Hygroscopicity comparison (in words) / Hygroscopicity: 0-80% RH; for Weight change in the range of 0% RH to 80% RH: dynamic vapor sorption
Description: Four crystal samples produced, namely the eutectic sample and the crystal form A sample of Example 1, the crystal form B sample of Example 2, and the crystal form D sample of Example 3, were subjected to hygroscopicity tests at 25° C. under a changing relative humidity of 0-80% RH.

[3] = Stability influence factor tests (high temperature, high humidity, illumination); settings: for Stability during the 10 days of examination (in words): high temperature, high humidity, illumination
Description: Four crystal samples produced, namely the eutectic sample and the crystal form A sample of Example 1, the crystal form B sample of Example 2, and the crystal form D sample of Example 3, were each subjected the stability influence factor tests under high temperature (60° C., in the dark), high humidity (relative humidity of 90%[…], in the dark), and illumination (4500 lx±500 lx), and sampling was carried out to on day 0, day 5 day, and day 10 for […] determination, and the results are shown in Table 4 below.

[4] = Solubility test in ultra-pure water; settings: for Solubility property (in words): solubility and kinetic solubility; for Solubility: upper limit 300 μg/mL
Text: as §1

[5] = 5 d, high humidity (relative humidity of 90%±50, in the dark)
[6] = 5 d, high temperature (60° C., in the dark)
[7] = 5 d, illumination (4500 lx±500 lx)
[8] = 10 d, high humidity (relative humidity of 90%±50, in the dark)
[9] = 10 d, high temperature (60° C., in the dark)
[10] = 10 d, illumination (4500 lx±500 lx)

| Kinetic solubility [1] [µg/mL] | Weight change in the range of 0% RH to 80% RH [2] | Stability results (content) ([3]; 0 h) [%] | Stability results (content) [3, 5] [%] | Stability results (content) [3, 6] [%] | Stability results (content) [3, 7] [%] | Stability results (content) [3, 8] [%] | Stability results (content) [3, 9] [%] | Stability results (content) [3, 10] [%] | Stability during the 10 days of examination (in words) [3] | Solubility property (in words) [4] | Solubility [4] [µg/mL] | Hygroscopicity [2] | Molecule | Hygroscopicity comparison (in words) [2] |
| --- | --- | --- | --- | --- | --- | --- | --- | --- | --- | --- | --- | --- | --- | --- |
| 958.47 | 1.4% | 99.01 | 99.24 | 98.97 | 98.61 | 99.23 | 99.22 | 98.90 | no significant content change | excellent solubility property | 318.09 (≈ 649 µM) | – | CSC[C@H](NC(=O)c1cc(Cl)ccc1Cl)C(=O)N[C@@H](CC(C)C)B1OCCNCCO1 [Crystal form A of Example 1, N—((R)-1-(((R)-1-(1,3,6,2-dioxazaborolan-2-yl)-3-methylbutyl)amino)-3-(methylthio)-1-oxoprop-2-yl)-2,5-dichlorobenzamide] | weaker hygroscopicity compared with the crystal form D |
| 902.91 | 2.4% | 98.05 | 97.88 | 97.68 | 98.07 | 98.39 | 98.52 | 98.49 | no significant content change | excellent solubility property | 304.21 (≈ 621 µM) | Deliquescent | CSC[C@H](NC(=O)c1cc(Cl)ccc1Cl)C(=O)N[C@@H](CC(C)C)B1OCCNCCO1 [Crystal form D of Example 3, N—((R)-1-(((R)-1-(1,3,6,2-dioxazaborolan-2-yl)-3-methylbutyl)amino)-3-(methylthio)-1-oxoprop-2-yl)-2,5-dichlorobenzamide] | – |
| 1078.59 | Less than 0.2% | 99.16 | 98.41 | 98.92 | 99.22 | 99.08 | 99.25 | 99.11 | no significant content change | excellent solubility property | 302.80 (≈ 618 µM) | Nonhygroscopic | CSC[C@H](NC(=O)c1cc(Cl)ccc1Cl)C(=O)N[C@@H](CC(C)C)B1OCCNCCO1 [Crystal form B of Example 2, N—((R)-1-(((R)-1-(1,3,6,2-dioxazaborolan-2-yl)-3-methylbutyl)amino)-3-(methylthio)-1-oxoprop-2-yl)-2,5-dichlorobenzamide] | weaker hygroscopicity compared with the crystal form D |

| Molecule | Kinetic solubility [1] [µg/mL] | Weight change in the range of 0% RH to 80% RH [2] | Stability results (content) ([3]; 0 h) [%] | Stability results (content) [3, 5] [%] | Stability results (content) [3, 6] [%] | Stability results (content) [3, 7] [%] | Stability results (content) [3, 8] [%] | Stability results (content) [3, 9] [%] | Stability results (content) [3, 10] [%] | Stability during the 10 days of examination (in words) [3] | Solubility property (in words) [4] | Solubility [4] [µg/mL] | Hygroscopicity [2] | Hygroscopicity comparison (in words) [2] |
| --- | --- | --- | --- | --- | --- | --- | --- | --- | --- | --- | --- | --- | --- | --- |
| N—((R)-1-(((R)-1-(1,3,6,2-dioxazaborolan-2-yl)-3-methylbutyl)amino)-3-(methylthio)-1-oxoprop-2-yl)-2,5-dichlorobenzamide [White eutectic solid of Example 1] | 948.16 | 2.1% | 98.10 | – | – | – | 93.18 | 97.49 | 98.06 | unstable | excellent solubility property | 310.12 | Deliquescent | – |
